Experimental data taken from publication PMC11864979, “First-in-class ultralong-target-residence-time p38α inhibitors as a mitosis-targeted therapy for colorectal cancer” (Nature Cancer, 2025).
Like-named read-outs stand apart in the source and are kept apart here.

Legend:
Experiment in all cases: selectivity profiling in a panel of 340 wild-type kinases (Reaction Biology Europe)
Format in all cases: binding
340 wild-type kinases [1] = target: T1, 340 wild-type kinases (Homo sapiens, UniProt P21802)
T1 construct: purchased Reaction Biology Europe

340 wild-type kinases [2] = target: T2, 340 wild-type kinases (Homo sapiens, UniProt P36897)
T2 construct: purchased Reaction Biology Europe
T2 sequence (P36897 34-503): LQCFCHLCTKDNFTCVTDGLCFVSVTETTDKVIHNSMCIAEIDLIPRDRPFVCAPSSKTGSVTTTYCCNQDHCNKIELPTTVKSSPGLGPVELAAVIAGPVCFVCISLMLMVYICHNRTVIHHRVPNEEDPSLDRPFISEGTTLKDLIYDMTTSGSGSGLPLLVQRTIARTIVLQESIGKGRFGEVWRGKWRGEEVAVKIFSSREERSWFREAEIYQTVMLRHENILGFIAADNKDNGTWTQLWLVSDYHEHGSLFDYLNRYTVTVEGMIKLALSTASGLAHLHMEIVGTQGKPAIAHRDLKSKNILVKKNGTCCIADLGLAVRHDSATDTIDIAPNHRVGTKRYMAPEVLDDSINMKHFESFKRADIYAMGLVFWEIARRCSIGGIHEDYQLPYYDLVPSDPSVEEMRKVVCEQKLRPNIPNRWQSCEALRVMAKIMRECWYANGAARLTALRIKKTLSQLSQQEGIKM

340 wild-type kinases [3] = target: T3, 340 wild-type kinases (Homo sapiens, UniProt P53671)
T3 construct: purchased Reaction Biology Europe

340 wild-type kinases [4] = target: T4, 340 wild-type kinases (Homo sapiens, UniProt Q05513); settings: PKMzeta, read-out: residual activity
T4 construct: purchased Reaction Biology Europe

340 wild-type kinases [5] = target: T5, 340 wild-type kinases (Homo sapiens, UniProt Q13163)
T5 construct: purchased Reaction Biology Europe
T5 sequence (Q13163 1-448): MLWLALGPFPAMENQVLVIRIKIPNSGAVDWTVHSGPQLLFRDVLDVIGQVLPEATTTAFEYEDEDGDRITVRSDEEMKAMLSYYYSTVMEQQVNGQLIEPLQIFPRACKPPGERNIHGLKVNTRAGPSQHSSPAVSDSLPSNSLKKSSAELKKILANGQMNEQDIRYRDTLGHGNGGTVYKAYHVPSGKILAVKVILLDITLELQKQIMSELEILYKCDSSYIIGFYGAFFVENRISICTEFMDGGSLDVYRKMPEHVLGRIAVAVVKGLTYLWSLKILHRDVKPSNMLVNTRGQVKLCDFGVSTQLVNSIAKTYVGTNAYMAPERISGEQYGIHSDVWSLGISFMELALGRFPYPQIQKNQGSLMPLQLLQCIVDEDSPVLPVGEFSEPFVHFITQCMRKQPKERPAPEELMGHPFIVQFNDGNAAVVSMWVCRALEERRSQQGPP

340 wild-type kinases [6] = target: T6, 340 wild-type kinases (Homo sapiens, UniProt Q13233)
T6 construct: purchased Reaction Biology Europe

340 wild-type kinases [7] = target: T7, 340 wild-type kinases (Homo sapiens, UniProt Q16512)
T7 construct: purchased Reaction Biology Europe

340 wild-type kinases [8] = target: T8, 340 wild-type kinases (Homo sapiens, UniProt Q16816)
T8 construct: purchased Reaction Biology Europe

340 wild-type kinases [9] = target: T9, 340 wild-type kinases (Homo sapiens, UniProt Q8NE63)
T9 construct: purchased Reaction Biology Europe
T9 sequence (Q8NE63 1-616): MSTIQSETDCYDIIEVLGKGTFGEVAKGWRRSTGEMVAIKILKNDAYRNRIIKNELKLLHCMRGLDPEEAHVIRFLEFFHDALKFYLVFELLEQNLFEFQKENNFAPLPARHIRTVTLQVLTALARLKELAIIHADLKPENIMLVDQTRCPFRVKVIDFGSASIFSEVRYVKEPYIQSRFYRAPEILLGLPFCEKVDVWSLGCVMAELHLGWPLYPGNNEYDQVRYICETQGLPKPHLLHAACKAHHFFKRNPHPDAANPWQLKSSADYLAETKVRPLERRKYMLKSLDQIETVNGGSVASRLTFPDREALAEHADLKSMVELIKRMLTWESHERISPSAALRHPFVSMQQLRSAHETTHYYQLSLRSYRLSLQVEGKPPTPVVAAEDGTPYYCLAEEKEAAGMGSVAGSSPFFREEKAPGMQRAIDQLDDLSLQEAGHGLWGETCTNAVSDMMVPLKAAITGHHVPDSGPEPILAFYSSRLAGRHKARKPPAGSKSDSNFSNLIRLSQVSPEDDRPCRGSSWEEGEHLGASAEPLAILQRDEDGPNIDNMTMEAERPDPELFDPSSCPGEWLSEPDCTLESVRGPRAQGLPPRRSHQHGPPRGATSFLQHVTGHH

340 wild-type kinases [10] = target: T10, 340 wild-type kinases (Homo sapiens, UniProt Q96GD4)
T10 construct: purchased Reaction Biology Europe

340 wild-type kinases [11] = target: T11, 340 wild-type kinases (Homo sapiens, UniProt Q9Y3S1)
T11 construct: purchased Reaction Biology Europe
T11 sequence (Q9Y3S1 whole entry): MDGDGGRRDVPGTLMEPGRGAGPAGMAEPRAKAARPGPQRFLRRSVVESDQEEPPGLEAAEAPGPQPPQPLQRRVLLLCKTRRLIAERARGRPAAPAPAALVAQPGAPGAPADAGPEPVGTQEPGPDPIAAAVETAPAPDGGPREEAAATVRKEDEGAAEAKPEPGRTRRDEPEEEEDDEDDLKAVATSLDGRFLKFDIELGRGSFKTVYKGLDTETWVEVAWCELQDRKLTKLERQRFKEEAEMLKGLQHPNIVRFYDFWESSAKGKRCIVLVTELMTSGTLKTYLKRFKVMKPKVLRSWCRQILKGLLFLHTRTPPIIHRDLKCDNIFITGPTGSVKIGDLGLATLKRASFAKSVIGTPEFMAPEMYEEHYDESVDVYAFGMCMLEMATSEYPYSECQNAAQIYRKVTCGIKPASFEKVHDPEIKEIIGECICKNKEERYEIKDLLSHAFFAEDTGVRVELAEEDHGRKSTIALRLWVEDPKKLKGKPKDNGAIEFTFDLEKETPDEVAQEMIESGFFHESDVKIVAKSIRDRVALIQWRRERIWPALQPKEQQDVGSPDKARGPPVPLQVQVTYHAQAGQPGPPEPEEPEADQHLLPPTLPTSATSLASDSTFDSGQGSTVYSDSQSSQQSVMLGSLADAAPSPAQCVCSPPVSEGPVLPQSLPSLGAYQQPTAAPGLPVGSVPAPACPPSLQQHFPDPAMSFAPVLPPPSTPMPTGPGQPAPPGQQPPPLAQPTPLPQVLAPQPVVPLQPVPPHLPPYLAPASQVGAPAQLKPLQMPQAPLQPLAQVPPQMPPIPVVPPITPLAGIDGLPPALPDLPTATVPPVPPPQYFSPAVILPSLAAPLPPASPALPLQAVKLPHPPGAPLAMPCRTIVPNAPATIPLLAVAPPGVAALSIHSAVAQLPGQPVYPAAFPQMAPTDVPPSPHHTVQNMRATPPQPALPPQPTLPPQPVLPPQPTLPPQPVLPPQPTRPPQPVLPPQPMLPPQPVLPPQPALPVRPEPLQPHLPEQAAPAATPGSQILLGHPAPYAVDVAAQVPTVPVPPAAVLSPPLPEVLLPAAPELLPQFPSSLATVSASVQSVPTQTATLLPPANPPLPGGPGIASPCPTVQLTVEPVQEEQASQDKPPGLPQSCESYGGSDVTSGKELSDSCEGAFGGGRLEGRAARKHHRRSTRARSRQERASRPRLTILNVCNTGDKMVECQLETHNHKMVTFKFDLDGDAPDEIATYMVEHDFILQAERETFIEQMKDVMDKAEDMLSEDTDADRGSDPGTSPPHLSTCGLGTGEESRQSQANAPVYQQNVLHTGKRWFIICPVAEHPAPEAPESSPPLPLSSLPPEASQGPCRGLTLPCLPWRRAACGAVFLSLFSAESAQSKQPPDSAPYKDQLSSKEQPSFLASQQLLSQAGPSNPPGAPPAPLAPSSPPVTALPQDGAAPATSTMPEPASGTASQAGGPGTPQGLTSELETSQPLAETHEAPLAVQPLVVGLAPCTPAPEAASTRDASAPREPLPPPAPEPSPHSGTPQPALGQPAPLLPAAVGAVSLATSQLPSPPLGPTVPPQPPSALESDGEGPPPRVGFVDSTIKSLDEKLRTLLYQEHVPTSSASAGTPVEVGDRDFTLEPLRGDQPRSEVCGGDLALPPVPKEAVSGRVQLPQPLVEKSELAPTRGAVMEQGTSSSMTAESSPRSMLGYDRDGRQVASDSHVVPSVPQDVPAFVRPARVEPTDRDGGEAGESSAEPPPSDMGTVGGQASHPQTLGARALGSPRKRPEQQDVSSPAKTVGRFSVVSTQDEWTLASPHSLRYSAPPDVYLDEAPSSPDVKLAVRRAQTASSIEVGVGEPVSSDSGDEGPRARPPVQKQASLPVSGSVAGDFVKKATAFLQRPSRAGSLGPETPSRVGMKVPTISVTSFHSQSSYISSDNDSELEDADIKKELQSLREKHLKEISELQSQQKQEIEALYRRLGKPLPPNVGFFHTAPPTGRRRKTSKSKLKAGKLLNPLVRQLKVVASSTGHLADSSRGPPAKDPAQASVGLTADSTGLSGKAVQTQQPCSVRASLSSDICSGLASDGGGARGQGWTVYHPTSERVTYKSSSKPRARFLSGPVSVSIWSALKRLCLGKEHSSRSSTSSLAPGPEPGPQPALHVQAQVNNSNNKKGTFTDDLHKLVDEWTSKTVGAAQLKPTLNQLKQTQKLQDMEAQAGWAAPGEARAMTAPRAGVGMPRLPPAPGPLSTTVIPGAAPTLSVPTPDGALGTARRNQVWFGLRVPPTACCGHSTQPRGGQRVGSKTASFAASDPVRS

T8 sequence (Q16816 whole entry): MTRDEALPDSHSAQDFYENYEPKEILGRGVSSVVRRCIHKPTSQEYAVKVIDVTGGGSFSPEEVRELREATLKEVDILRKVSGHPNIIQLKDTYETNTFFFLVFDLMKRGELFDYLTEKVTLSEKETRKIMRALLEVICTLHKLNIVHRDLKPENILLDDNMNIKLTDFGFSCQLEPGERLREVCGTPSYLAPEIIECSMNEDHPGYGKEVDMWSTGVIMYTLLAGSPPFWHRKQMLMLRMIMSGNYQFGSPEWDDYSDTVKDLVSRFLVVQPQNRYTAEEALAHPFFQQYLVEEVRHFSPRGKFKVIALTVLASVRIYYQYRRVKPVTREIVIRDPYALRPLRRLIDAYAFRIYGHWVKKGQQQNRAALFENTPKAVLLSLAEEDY
T7 sequence (Q16512 whole entry): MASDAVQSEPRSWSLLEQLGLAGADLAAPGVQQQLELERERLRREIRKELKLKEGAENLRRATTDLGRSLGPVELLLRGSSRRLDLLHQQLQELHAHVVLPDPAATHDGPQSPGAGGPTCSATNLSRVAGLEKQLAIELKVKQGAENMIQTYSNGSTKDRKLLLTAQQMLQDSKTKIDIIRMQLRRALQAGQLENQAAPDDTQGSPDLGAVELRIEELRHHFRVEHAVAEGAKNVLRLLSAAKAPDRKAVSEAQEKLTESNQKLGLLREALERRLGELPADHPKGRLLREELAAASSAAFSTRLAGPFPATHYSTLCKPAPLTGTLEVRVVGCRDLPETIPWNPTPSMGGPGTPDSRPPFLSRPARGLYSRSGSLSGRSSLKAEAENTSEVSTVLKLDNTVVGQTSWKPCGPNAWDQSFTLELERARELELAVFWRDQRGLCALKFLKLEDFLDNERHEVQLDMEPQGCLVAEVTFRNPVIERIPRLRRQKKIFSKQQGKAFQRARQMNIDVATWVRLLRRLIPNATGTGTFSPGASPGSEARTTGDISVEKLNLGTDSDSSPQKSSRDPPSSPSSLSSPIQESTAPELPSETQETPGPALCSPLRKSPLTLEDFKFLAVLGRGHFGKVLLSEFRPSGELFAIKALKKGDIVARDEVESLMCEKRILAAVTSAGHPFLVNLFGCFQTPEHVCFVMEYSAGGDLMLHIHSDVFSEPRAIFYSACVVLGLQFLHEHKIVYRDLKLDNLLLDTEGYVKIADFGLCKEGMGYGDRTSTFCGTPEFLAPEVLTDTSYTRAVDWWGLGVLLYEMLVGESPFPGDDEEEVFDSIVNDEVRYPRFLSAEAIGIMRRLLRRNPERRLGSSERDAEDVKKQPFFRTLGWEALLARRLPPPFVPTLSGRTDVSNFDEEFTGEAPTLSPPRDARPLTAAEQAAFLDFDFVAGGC
T6 sequence (Q13233 whole entry): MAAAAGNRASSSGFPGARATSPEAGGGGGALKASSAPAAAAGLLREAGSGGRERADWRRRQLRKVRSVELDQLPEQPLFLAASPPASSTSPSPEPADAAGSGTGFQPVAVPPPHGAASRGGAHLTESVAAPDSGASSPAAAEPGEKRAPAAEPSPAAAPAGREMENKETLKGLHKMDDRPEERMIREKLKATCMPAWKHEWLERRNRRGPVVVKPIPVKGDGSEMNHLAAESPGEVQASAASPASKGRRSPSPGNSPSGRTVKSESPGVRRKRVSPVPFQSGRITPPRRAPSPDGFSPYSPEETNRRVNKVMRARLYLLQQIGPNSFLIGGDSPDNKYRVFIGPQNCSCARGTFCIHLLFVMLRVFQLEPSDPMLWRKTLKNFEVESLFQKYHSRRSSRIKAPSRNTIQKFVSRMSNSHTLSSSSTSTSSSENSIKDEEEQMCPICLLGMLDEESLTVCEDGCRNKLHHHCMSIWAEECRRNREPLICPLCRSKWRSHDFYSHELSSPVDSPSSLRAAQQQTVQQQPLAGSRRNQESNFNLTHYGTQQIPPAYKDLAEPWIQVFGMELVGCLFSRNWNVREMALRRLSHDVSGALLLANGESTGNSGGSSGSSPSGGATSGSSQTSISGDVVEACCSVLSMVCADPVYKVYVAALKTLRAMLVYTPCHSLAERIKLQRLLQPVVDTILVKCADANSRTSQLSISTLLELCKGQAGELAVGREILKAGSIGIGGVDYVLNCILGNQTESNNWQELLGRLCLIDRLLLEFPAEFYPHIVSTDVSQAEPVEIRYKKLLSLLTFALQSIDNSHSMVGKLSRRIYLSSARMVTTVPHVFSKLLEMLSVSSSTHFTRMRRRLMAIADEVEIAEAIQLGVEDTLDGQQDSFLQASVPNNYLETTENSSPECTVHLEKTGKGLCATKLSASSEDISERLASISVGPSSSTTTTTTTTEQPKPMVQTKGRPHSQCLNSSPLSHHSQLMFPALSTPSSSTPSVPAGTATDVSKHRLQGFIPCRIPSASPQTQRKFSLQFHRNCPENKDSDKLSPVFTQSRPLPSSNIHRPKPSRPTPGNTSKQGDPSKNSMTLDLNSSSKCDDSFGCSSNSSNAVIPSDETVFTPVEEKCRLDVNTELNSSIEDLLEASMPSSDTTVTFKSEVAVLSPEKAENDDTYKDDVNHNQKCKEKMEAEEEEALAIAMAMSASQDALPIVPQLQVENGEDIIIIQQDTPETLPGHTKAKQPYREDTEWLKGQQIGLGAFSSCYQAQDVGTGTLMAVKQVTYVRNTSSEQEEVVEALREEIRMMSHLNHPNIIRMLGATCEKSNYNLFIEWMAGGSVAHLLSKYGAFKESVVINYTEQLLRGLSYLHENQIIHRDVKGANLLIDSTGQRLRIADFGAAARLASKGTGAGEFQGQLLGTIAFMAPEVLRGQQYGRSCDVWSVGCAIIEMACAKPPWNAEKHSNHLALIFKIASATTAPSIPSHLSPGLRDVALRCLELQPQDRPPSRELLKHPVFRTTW

## CNC(=O)c1ccc2c(c1)C(=O)c1ccc(Nc3ccc(F)c(NC(=O)C4CC4)c3)cc1CC2 [Compound 2015]
340 wild-type kinases [1]; 0.2 µM 2015, read-out: FGFR2 residual activity
  remaining activity at 0.2 µM: 94.1%
340 wild-type kinases [1]; 1 µM 2015, read-out: FGFR2 residual activity
  remaining activity at 1 µM: 96%
340 wild-type kinases [1]; FGFR2, 0.2 µM, read-out: residual activity
  remaining activity at 0.2 µM: 94.1%
340 wild-type kinases [1]; FGFR2, 1 µM, read-out: residual activity
  remaining activity at 1 µM: 96%
340 wild-type kinases [2]; 0.2 µM 2015, read-out: TGFBR1 residual activity
  remaining activity at 0.2 µM: 84.1%
340 wild-type kinases [2]; 1 µM 2015, read-out: TGFBR1 residual activity
  remaining activity at 1 µM: 90.9%
340 wild-type kinases [2]; TGFBR1, 0.2 µM, read-out: residual activity
  remaining activity at 0.2 µM: 84.1%
340 wild-type kinases [2]; TGFBR1, 1 µM, read-out: residual activity
  remaining activity at 1 µM: 90.9%
340 wild-type kinases [3]; 0.2 µM 2015, read-out: LIMK2 residual activity
  remaining activity at 0.2 µM: 114%
340 wild-type kinases [3]; 1 µM 2015, read-out: LIMK2 residual activity
  remaining activity at 1 µM: 103%
340 wild-type kinases [3]; LIMK2, 0.2 µM, read-out: residual activity
  remaining activity at 0.2 µM: 114%
340 wild-type kinases [3]; LIMK2, 1 µM, read-out: residual activity
  remaining activity at 1 µM: 103%
340 wild-type kinases [4]; 0.2 µM
  remaining activity at 0.2 µM: 106%
340 wild-type kinases [4]; 1 µM
  remaining activity at 1 µM: 102%
340 wild-type kinases [5]; 0.2 µM 2015, read-out: MEK5 residual activity
  remaining activity at 0.2 µM: 102%
340 wild-type kinases [5]; 1 µM 2015, read-out: MEK5 residual activity
  remaining activity at 1 µM: 88.1%
340 wild-type kinases [5]; MEK5, 0.2 µM, read-out: residual activity
  remaining activity at 0.2 µM: 102%
340 wild-type kinases [5]; MEK5, 1 µM, read-out: residual activity
  remaining activity at 1 µM: 88.1%
340 wild-type kinases [6]; 0.2 µM 2015, read-out: MAP3K1 residual activity
  remaining activity at 0.2 µM: 104%
340 wild-type kinases [6]; 1 µM 2015, read-out: MAP3K1 residual activity
  remaining activity at 1 µM: 102%
340 wild-type kinases [6]; MAP3K1, 0.2 µM, read-out: residual activity
  remaining activity at 0.2 µM: 104%
340 wild-type kinases [6]; MAP3K1, 1 µM, read-out: residual activity
  remaining activity at 1 µM: 102%
340 wild-type kinases [7]; 0.2 µM 2015, read-out: PRK1 residual activity
  remaining activity at 0.2 µM: 101%
340 wild-type kinases [7]; 1 µM 2015, read-out: PRK1 residual activity
  remaining activity at 1 µM: 97.6%
340 wild-type kinases [7]; PRK1, 0.2 µM, read-out: residual activity
  remaining activity at 0.2 µM: 101%
340 wild-type kinases [7]; PRK1, 1 µM, read-out: residual activity
  remaining activity at 1 µM: 97.6%
340 wild-type kinases [8]; 0.2 µM 2015, read-out: PHKG1 residual activity
  remaining activity at 0.2 µM: 90.9%
340 wild-type kinases [8]; 1 µM 2015, read-out: PHKG1 residual activity
  remaining activity at 1 µM: 102%
340 wild-type kinases [8]; PHKG1, 0.2 µM, read-out: residual activity
  remaining activity at 0.2 µM: 90.9%
340 wild-type kinases [8]; PHKG1, 1 µM, read-out: residual activity
  remaining activity at 1 µM: 102%
340 wild-type kinases [9]; 0.2 µM 2015, read-out: HIPK4 residual activity
  remaining activity at 0.2 µM: 96.4%
340 wild-type kinases [9]; 1 µM 2015, read-out: HIPK4 residual activity
  remaining activity at 1 µM: 95.4%
340 wild-type kinases [9]; HIPK4, 0.2 µM, read-out: residual activity
  remaining activity at 0.2 µM: 96.4%
340 wild-type kinases [9]; HIPK4, 1 µM, read-out: residual activity
  remaining activity at 1 µM: 95.5%
340 wild-type kinases [10]; 0.2 µM 2015, read-out: AuroraB residual activity
  remaining activity at 0.2 µM: 120%
340 wild-type kinases [10]; 1 µM 2015, read-out: AuroraB residual activity
  remaining activity at 1 µM: 112%
340 wild-type kinases [10]; AuroraB, 0.2 µM, read-out: residual activity
  remaining activity at 0.2 µM: 120%
340 wild-type kinases [10]; AuroraB, 1 µM, read-out: residual activity
  remaining activity at 1 µM: 112%
340 wild-type kinases [11]; 0.2 µM 2015, read-out: WNK2 residual activity
  remaining activity at 0.2 µM: 107%
340 wild-type kinases [11]; 1 µM 2015, read-out: WNK2 residual activity
  remaining activity at 1 µM: 111%
340 wild-type kinases [11]; WNK2, 0.2 µM, read-out: residual activity
  remaining activity at 0.2 µM: 107%
340 wild-type kinases [11]; WNK2, 1 µM, read-out: residual activity
  remaining activity at 1 µM: 111%
